# In ChEMBL document CHEMBL5038606 (J Med Chem, 2022):
# Tests used:
# Plasma = experiment: Anticoagulant activity in human plasma assessed as activated partial thromboplastin time; assay type: functional
# [1] = Metabolic stability in human liver microsomes assessed as half life; assay type: ADME, Microsome
# [2] = Metabolic stability in Sprague-Dawley rat liver microsomes assessed as half life; assay type: ADME, Microsome; parameters: dose or concentration left out as unconfirmed
# [3] = Volume of distribution at steady state in Sprague-Dawley rat at 1.06 mg/kg, po or 0.53 mg/kg, iv; assay type: ADME, organism-based; conditions: in vivo, read-out: Vdss
# [4] = Oral bioavailability in Sprague-Dawley rat at 1.06 mg/kg; assay type: ADME, organism-based; conditions: in vivo
# [5] = Half life in Sprague-Dawley rat at 1.06 mg/kg, po or 0.53 mg/kg, iv; assay type: ADME, organism-based; conditions: in vivo
# Coagulation factor XI = Coagulation factor XI (Homo sapiens, UniProt P03951); experiment: Binding affinity to human coagulation factor 11a using L-Pyroglutamyl-L-prolyl-L-arginine p-Nitroaniline as substrate assessed as inhibition constant measured upto 120 mins by spectrophotometric analysis
# Chain of Coagulation factor XI (P03951 19-387 limits assumed): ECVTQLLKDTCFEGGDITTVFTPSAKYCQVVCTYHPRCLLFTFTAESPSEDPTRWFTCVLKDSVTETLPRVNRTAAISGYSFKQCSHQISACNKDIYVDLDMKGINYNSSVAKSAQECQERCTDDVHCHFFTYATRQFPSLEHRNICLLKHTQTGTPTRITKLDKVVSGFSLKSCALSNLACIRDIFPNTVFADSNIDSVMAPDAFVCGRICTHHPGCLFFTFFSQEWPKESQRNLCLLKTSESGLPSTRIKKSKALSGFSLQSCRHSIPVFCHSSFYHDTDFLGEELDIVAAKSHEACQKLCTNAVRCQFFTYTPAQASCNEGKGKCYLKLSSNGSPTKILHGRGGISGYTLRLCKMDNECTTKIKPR
# Chain of Coagulation factor XI (P03951 388-625 limits assumed): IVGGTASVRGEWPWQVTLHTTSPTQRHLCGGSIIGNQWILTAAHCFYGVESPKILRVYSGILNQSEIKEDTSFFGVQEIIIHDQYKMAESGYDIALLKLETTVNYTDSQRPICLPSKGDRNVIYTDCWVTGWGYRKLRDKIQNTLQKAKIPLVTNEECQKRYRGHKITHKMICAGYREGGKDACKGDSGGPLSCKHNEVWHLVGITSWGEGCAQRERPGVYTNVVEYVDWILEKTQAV
# [6] = AUC in Sprague-Dawley rat at 1.06 mg/kg, po; assay type: ADME, organism-based; parameters: dose 1.06 mg/kg; conditions: in vivo
# [7] = Clearance in Sprague-Dawley rat at 1.06 mg/kg, po or 0.53 mg/kg, iv; assay type: ADME, organism-based; conditions: in vivo
# [8] = Protein binding in Sprague-Dawley rat plasma assessed as bound fraction; assay type: ADME, cell-free; parameters: dose or concentration left out as unconfirmed
# [9] = Aqueous solubility of the compound at pH 1.0; assay type: physicochemical; conditions: aqueous medium
# [10] = Fraction unbound in human plasma; assay type: ADME, cell-free
# [11] = Aqueous solubility of the compound at pH 6.5; assay type: physicochemical; conditions: aqueous medium
half-life [1] [h],Ki (Coagulation factor XI) [nM],SMILES,EC1.5 (Plasma) [µM],also measured
0.1,,C[C@@H]1CCC[C@H](N2CCC(c3cc(Cl)ccc3-n3ccnn3)=CC2=O)c2cc(ccn2)-c2c(cnn2C2CCC2)NC1=O,3.04,
> 2,0.07,C[C@@H]1CCC[C@H](N2CCC(c3cc(Cl)ccc3-n3cc(Cl)nn3)=CC2=O)c2cc(ccn2)-c2c(cnn2C(F)F)NC1=O,0.39,half-life [2]: > 2 h; Vd [3]: 1.4 L/kg; bioavailability [4]: 18%; half-life [5]: 1.2 h; AUC [6]: 0.3 µM·h; clearance [7]: 17 mL/min/kg; fraction unbound [8]: 0.06
,2.7,C[C@@H]1CCC[C@H](N2CCC(c3cc(Cl)ccc3-n3ccnc3)=CC2=O)c2cc(ccn2)-c2c(cnn2C)NC1=O,0.6,
,,C[C@@H]1CCC[C@H](N2CCC(c3c(F)ccc(Cl)c3F)=CC2=O)c2cc(ccn2)-c2c(cnn2C)NC1=O,,solubility [9]: 3 µg/mL; fraction unbound [10]: 0.007; solubility [11]: 0.15 µg/mL
1.08,,C[C@@H]1CCC[C@H](N2CCC(c3cc(Cl)ccc3-n3cc(Cl)nn3)=CC2=O)c2cc(ccn2)-c2c(cnn2C)NC1=O,0.3,
,548,C[C@@H]1CCC[C@H](N2CCC(c3c(F)ccc(Cl)c3F)=CC2=O)c2cc(ccn2)-c2[nH]ncc2NC1=O,,
1.93,,C[C@@H]1CCC[C@H](n2cnc(-c3cc(Cl)ccc3-n3cc(Cl)nn3)cc2=O)c2cc(ccn2)-c2c(cnn2C)NC1=O,0.3,
,11,C[C@@H]1CCC[C@H](N2CCC(c3cc(Cl)ccc3-n3cccn3)=CC2=O)c2cc(ccn2)-c2c(cnn2C)NC1=O,8.9,
0.167,1.3,CCn1ncc2c1-c1ccnc(c1)[C@@H](N1CCC(c3cc(Cl)ccc3-n3ccnn3)=CC1=O)CCC[C@@H](C)C(=O)N2,0.48,
